{"source": "patent US20120046253A1", "about": "“STABLE PHARMACOLOGICALLY ACTIVE COMPOSITIONS INCLUDING VITAMIN D CONTAINING AND CORTICOSTEROID COMPOUNDS WITH LOW pH COMPATIBILITY” (priority 2006, published 2012)", "key": {"[1]": {"conditions": "asserted in U.S. Pat. No. 5,763,426; cited from earlier work"}, "[2]": {"assay": "Stability of the calcipotriene and betamethasone dipropionate composition at 40° C. (quantitative HPLC)", "assay_type": "physicochemical", "protocol": "(§1) In both of the above cases, stability is measured after incubation in a closed container at the recited temperature for the recited amount of time; stability is determined by any quantitative assay for the recited component, and is preferably determined by HPLC methodologies known in the art.\nThe amount of the recited components in Table 1 were measured by quantitiative HPLC 1-2 days after the cooling (Time zero) and at the recited times after storage at the recited temperatures.\nThe amount of the recited components in Table 1 were measured by quantitiative HPLC 1-2 days after the cooling (Time zero) and at the recited times after storage at the recited temperatures)."}, "[3]": {"assay": "Stability of the calcipotriene and betamethasone dipropionate composition at 55° C. (quantitative HPLC)", "assay_type": "physicochemical", "conditions": "Example 1 ointment", "protocol": "as §1"}, "[4]": {"conditions": "reportedly; cited from earlier work"}}}
{"smiles": "C=C1/C(=C\\C=C2/CCC[C@]3(C)[C@@H]([C@H](C)/C=C/[C@@H](O)C4CC4)CC[C@@H]23)C[C@@H](O)C[C@@H]1O", "note": "[calcipotriol hydrate]", "values": [{"measurement": "stability of crystal form", "setting": "[1]", "result": "surprisingly stable"}]}
{"smiles": "C=C1/C(=C\\C=C2/CCC[C@]3(C)[C@@H]([C@H](C)/C=C/[C@@H](O)C4CC4)CC[C@@H]23)C[C@@H](O)C[C@@H]1O", "note": "[Calcipotriene, calcipotriene]", "values": [{"measurement": "Assay (%) Time zero", "setting": "[2]; Example 1 ointment (medium chain triglyceride), 1-2 days after cooling, HPLC", "result": 95.8, "unit": "%"}, {"measurement": "Assay (%) 1 months", "setting": "[2]; Example 1 ointment, stored at 40° C. 1 month", "result": 98.0, "unit": "%"}, {"measurement": "Assay (%) 2 months", "setting": "[2]; Example 1 ointment, stored at 40° C. 2 months", "result": 97.1, "unit": "%"}, {"measurement": "Assay (%) 3 months", "setting": "[2]; Example 1 ointment, stored at 40° C. 3 months", "result": 100.5, "unit": "%"}, {"measurement": "Assay Time zero", "setting": "[2]; Example 2 ointment (polysorbate 80), time zero", "result": 99.1, "unit": "%"}, {"measurement": "Assay 1 months", "setting": "[2]; Example 2 ointment, stored at 40° C. 1 month", "result": 97.9, "unit": "%"}, {"measurement": "Assay 2 months", "setting": "[2]; Example 2 ointment, stored at 40° C. 2 months", "result": 97.4, "unit": "%"}, {"measurement": "Assay (%) 3 days", "setting": "[3]; stored at 55° C. 3 days", "result": 96.4, "unit": "%"}, {"measurement": "Assay (%) Time zero", "setting": "[3]; time zero (Table 2)", "result": 95.8, "unit": "%"}, {"measurement": "pH at which most stable", "setting": "[4]", "result": "greater than 8"}]}
